From patent US10703746B2, “Mutant IDH1 inhibitors useful for treating cancer” (THE UNITED STATES OF AMERICA, AS REPRESENTED BY THE …, priority 2014, dated 2020)

Assays:
IDH1 R132C = IDH1 R132C (Homo sapiens, UniProt O75874, R132C); experiment: IDH1 R132C enzymatic assay (NADPH depletion coupled to diaphorase/resazurin); format: biochemical; conditions: enzymatic inhibition, IDH1 R132C
Procedure, shortened: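 NADPH depletion, read via diaphorase/resazurin coupling, after adding substrate at 0.6 mM α-KG and 0.012 mM NADPH. Beforehand, 0.00032 mg/mL enzyme sat with compound 30 min at room temperature in pH 6.5 potassium phosphate buffer with MgCl2, glycerol and BSA.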

IDH1 R132H = IDH1 R132H (Homo sapiens, UniProt O75874, R132H); experiment: IDH1 R132H enzymatic assay (NADPH depletion coupled to diaphorase/resazurin); format: biochemical; conditions: enzymatic inhibition, IDH1 R132H
IDH1 R132H, sequence (O75874 whole entry R132H): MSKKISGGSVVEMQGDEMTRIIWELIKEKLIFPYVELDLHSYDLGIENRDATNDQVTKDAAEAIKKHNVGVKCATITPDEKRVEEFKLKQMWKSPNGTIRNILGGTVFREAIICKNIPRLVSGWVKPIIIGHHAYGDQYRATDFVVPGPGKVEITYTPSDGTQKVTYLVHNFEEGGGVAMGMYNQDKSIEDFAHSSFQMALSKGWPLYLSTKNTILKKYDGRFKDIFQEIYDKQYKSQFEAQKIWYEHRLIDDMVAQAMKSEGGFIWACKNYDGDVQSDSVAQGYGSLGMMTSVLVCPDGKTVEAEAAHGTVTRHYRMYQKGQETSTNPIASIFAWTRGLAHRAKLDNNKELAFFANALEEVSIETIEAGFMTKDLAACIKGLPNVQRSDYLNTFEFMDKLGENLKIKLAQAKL

IDH1 R132C, sequence (O75874 whole entry R132C): as the sequence (O75874 whole entry R132H) above, with H132C counted along it

SMILES | IC50 (IDH1 R132C) [nM] | IC50 (IDH1 R132H) [nM]
CC1(C)CC(=O)c2cc(-c3nc(-c4ccc(Cl)cc4)cs3)c(=O)n(-c3cscc3C(N)=O)c2C1 [Compound 429] | 5000 to 20000 | 5000 to 20000
CCc1cccc(C)c1-n1c(C)c(C(=O)N2CCNCC2)cc(-c2nc(-c3ccc(Cl)cc3)cs2)c1=O [Compound 432] | 1000 to 5000 | 300 to 1000
CCc1cccc(CC)c1-n1c(C=C(C)C)c(C(=O)N2CCNCC2)cc(-c2nn(-c3ccc(Cl)cc3)cc2C(F)(F)F)c1=O [Compound 435] | 5000 to 20000 | 1000 to 5000
Cc1nonc1-n1c2c(cc(-c3nc(-c4ccc(Cl)cc4)cs3)c1=O)C(=O)CC(C)(C)C2 [Compound 439] | 1000 to 5000 | > 20000
CN1CCN(Cc2ccccc2-n2c3c(cc(-c4nc(-c5ccc(Cl)cc5)cs4)c2=O)C(=O)CCC3)CC1 [Compound 440] | 5000 to 20000 | 5000 to 20000
CC1(C)CC(=O)c2cc(-c3nc(-c4ccc(Cl)cc4)cs3)c(=O)n(-c3ccc(Cl)cc3Cl)c2C1 [Compound 441] | 5000 to 20000 | > 20000
CCOc1cccc(OCC)c1-n1c2c(cc(-c3nc(-c4ccc(Cl)cc4)cs3)c1=O)C(=O)CCC2 [Compound 444] | 300 to 1000 | 300 to 1000
CN1CCN(Cc2cccc(-n3c4c(cc(-c5nc(-c6ccc(Cl)cc6)cs5)c3=O)C(=O)CC(C)(C)C4)c2)CC1 [Compound 445] | 5000 to 20000 | 5000 to 20000
CCc1cccc(CC)c1-n1c(C=C(C)C)c(C(=O)N2C[C@H]3C[C@@H]2CN3)cc(-c2nc(-c3ccc(Cl)cc3)cs2)c1=O [Compound 447] | < 300 | < 300
CC(C)=Cc1c(C(=O)N2CCNCC2)cc(-c2nc(-c3ccc(Cl)cc3)cs2)c(=O)n1-c1ccccc1Cl [Compound 449] | < 300 | < 300
Cc1ccc(-n2c3c(cc(-c4nc(-c5ccc(Cl)cc5)cs4)c2=O)C(=O)CCC3)c(C)c1 [Compound 450] | > 20000 | > 20000
CCc1cccc(CC)c1-n1c(CC(C)C)c(C(=O)N2CCNCC2)cc(-n2ccc(-c3ccc(Cl)cc3)n2)c1=O [Compound 452] | < 300 | < 300
CCc1cccc(CC)c1-n1c(CC(C)C)c(C(=O)N2CCNCC2)cc(-c2nc(-c3ccc(Cl)cc3)c(C(=O)NC)s2)c1=O [Compound 454] | 1000 to 5000 | 300 to 1000
CCc1cccc(CC)c1-n1c(CC2CCCCO2)c(C(=O)N2CCNCC2)cc(-c2nc(-c3ccc(Cl)cc3)cs2)c1=O (stereo not drawn) [Compound 455] | 300 to 1000 | 1000 to 5000
CCc1cccc(CC)c1-n1c(C(CC)OC)c(C(=O)N2CCNCC2)cc(-c2nc(-c3ccc(Cl)cc3)cs2)c1=O (stereo not drawn) [Compound 456] | 300 to 1000 | 300 to 1000
CCc1cccc(CC)c1-n1c(C2CCCO2)c(C(=O)N2CCNCC2)cc(-c2nc(-c3ccc(Cl)cc3)cs2)c1=O (stereo not drawn) [Compound 457] | < 300 | < 300
Cc1ccc(CN2CCN(C)CC2)cc1-n1c2c(cc(-c3nc(-c4ccc(Cl)cc4)cs3)c1=O)C(=O)CC(C)(C)C2 [Compound 460] | 5000 to 20000 | 5000 to 20000
COc1cccc(OC)c1-n1c(CC(C)C)c(C(=O)N2CCNCC2)cc(-c2nc(-c3ccc(Cl)cc3)cs2)c1=O [Compound 461] | 300 to 1000 | < 300
Cc1ccccc1Oc1nc(C)c(C(=O)N2CCNCC2)cc1-c1nc(-c2ccc(Cl)cc2)cs1 [Compound 462] | 5000 to 20000 | 5000 to 20000
COc1cccc(OC)c1-n1c(C=C(C)C)c(C(=O)N2CCNCC2)cc(-c2nc(-c3ccc(Cl)cc3)cs2)c1=O [Compound 467] | < 300 | < 300
Cc1cccc(CN2CCN(C)CC2)c1-n1c2c(cc(-c3nc(-c4ccc(Cl)cc4)cs3)c1=O)C(=O)CCC2 [Compound 468] | 5000 to 20000 | 5000 to 20000
CCOc1ncc(Cl)cc1-n1c(C=C(C)C)c(C(=O)N2CCNCC2)cc(-c2nc(-c3ccc(C(F)F)cn3)cs2)c1=O [Compound 469] | 1000 to 5000 | 300 to 1000
Cc1ccccc1-n1c(C)c(C(=O)N2CCNCC2)cc(-c2nc(-c3ccc(Cl)cc3)cs2)c1=O [Compound 470] | 5000 to 20000 | 1000 to 5000
Cc1conc1-n1c2c(cc(-c3nc(-c4ccc(Cl)cc4)cs3)c1=O)C(=O)CC(C)(C)C2 [Compound 472] | 1000 to 5000 | 1000 to 5000
CCOc1ncc(F)cc1-n1c(C=C(C)C)c(C(=O)N2CCNCC2)cc(-c2nc(-c3ccc(C(F)F)cn3)cs2)c1=O [Compound 474] | 1000 to 5000 | 300 to 1000
CCc1cccc(CC)c1-n1c(C=C(C)C)c(C(=O)N2CCNC(CO)C2)cc(-c2nc(-c3ccc(Cl)cc3)cs2)c1=O (stereo not drawn) [Compound 478] | < 300 | < 300
Cc1c(CO)cccc1-n1c2c(cc(-c3nc(-c4ccc(Cl)nc4)cs3)c1=O)C(=O)CCC2 [Compound 486] | 5000 to 20000 | 5000 to 20000
CCc1cccc(CC)c1-n1c(C=C(C)C)c(C(=O)N2CCNC(C(C)C)C2)cc(-c2nc(-c3ccc(Cl)cc3)cs2)c1=O (stereo not drawn) [Compound 489] | < 300 | < 300
COc1ncc(Cl)cc1-n1c(C=C(C)C)c(C(=O)N2CCNCC2)cc(-c2nc(-c3ccc(Cl)cc3)cs2)c1=O [Compound 490] | < 300 | < 300

Now from value to compound:

IC50 (IDH1 R132C) [nM] | IC50 (IDH1 R132H) [nM] | SMILES
300 to 1000 | 300 to 1000 | CCc1cccc(CC)c1-n1c(CC(C)C)c(C(=O)N2CCNCC2)cc(-c2nc(-c3ccc(Cl)cc3)c(C(F)(F)F)s2)c1=O [Compound 430]
< 300 | < 300 | CCc1cccc(CC)c1-n1c(C=C(C)C)c(C(=O)N2CCNC3(CC3)C2)cc(-c2nc(-c3ccc(Cl)cc3)cs2)c1=O [Compound 431]
< 300 | < 300 | CCc1cccc(CC)c1-n1c(CC2CCC2)c(C(=O)N2CCNCC2)cc(-c2nc(-c3ccc(Cl)cc3)cs2)c1=O [Compound 433]
< 300 | 300 to 1000 | CCc1cccc(CC)c1-n1c(C2CCC2)c(C(=O)N2CCNCC2)cc(-c2nc(-c3ccc(Cl)cc3)cs2)c1=O [Compound 434]
5000 to 20000 | > 20000 | COc1ccncc1-n1c2c(cc(-c3nc(-c4ccc(Cl)cc4)cs3)c1=O)C(=O)CC(C)(C)C2 [Compound 436]
300 to 1000 | < 300 | CC(C)=Cc1c(C(=O)N2CCNCC2)cc(-c2nc(-c3ccc(Cl)cc3)cs2)c(=O)n1-c1ccccc1C [Compound 437]
< 300 | < 300 | COc1ccc(C)cc1-n1c(C=C(C)C)c(C(=O)N2CCNCC2)cc(-c2nc(-c3ccc(Cl)cc3)cs2)c1=O [Compound 438]
< 300 | 300 to 1000 | CCc1cccc(CC)c1-n1c(C=C(C)C)c(C(=O)N2CCNCC23COC3)cc(-c2nc(-c3ccc(Cl)cc3)cs2)c1=O [Compound 443]
300 to 1000 | 1000 to 5000 | CCc1cccc(CC)c1-n1c(C2CCOCC2)c(C(=O)N2CCNCC2)cc(-c2nc(-c3ccc(Cl)cc3)cs2)c1=O [Compound 446]
< 300 | < 300 | CCc1cccc(Cl)c1-n1c(C=C(C)C)c(C(=O)N2CCNCC2)cc(-c2nc(-c3ccc(Cl)cc3)cs2)c1=O [Compound 448]
1000 to 5000 | 300 to 1000 | O=C1CCCc2c1cc(-c1nc(-c3ccc(Cl)cc3)cs1)c(=O)n2-c1ccccc1C(F)(F)F [Compound 451]
< 300 | < 300 | CCOc1ccc(-n2ccc(-c3cc(C(=O)N4CCNCC4)c(CC(C)C)n(-c4c(CC)cccc4CC)c3=O)n2)cc1 [Compound 458]
< 300 | < 300 | CCc1cccc(CC)c1-n1c(C(C)OC)c(C(=O)N2CCNCC2)cc(-c2nc(-c3ccc(Cl)cc3)cs2)c1=O (stereo not drawn) [Compound 459]
< 300 | < 300 | CCOc1ccc(Cl)cc1-n1c(C=C(C)C)c(C(=O)N2CCNCC2)cc(-c2nc(-c3ccc(Cl)cc3)cs2)c1=O [Compound 463]
1000 to 5000 | 300 to 1000 | CCc1cccc(CC)c1-n1c(CC(C)C)c(C(=O)N2CCNCC2)cc(-c2nc(-c3ccc(Cl)cc3)c(C(=O)N(C)C)s2)c1=O [Compound 464]
< 300 | < 300 | CCc1cccc(CC)c1-n1c(CC(C)C)c(C(=O)N2CCNC3(CCC3)C2)cc(-c2nc(-c3ccc(Cl)cc3)cs2)c1=O [Compound 465]
5000 to 20000 | 1000 to 5000 | CCc1ncc(OC)cc1-n1c(C=C(C)C)c(C(=O)N2CCNCC2)cc(-c2nc(-c3ccc(C(F)F)cn3)cs2)c1=O [Compound 466]
< 300 | < 300 | CCCc1c(C(=O)N2CCNCC2)cc(-c2nc(-c3ccc(Cl)cc3)cs2)c(=O)n1-c1c(CC)cccc1CC [Compound 473]
300 to 1000 | 300 to 1000 | CCc1cccc(CC)c1-n1c2c(cc(-c3nc(-c4ccc(Cl)cc4)cs3)c1=O)C(=O)OC(C)(C)C2 [Compound 475]
300 to 1000 | < 300 | CCOc1ccc(F)cc1-n1c(C=C(C)C)c(C(=O)N2CCNCC2)cc(-c2nc(-c3ccc(C(F)(F)F)nc3)cs2)c1=O [Compound 477]
5000 to 20000 | 5000 to 20000 | CCc1cccc(CC)c1-n1c(C=C(C)C)c(C(=O)N2CCN(c3ccccc3C(F)(F)F)CC2)cc(-c2nc(-c3ccc(Cl)cc3)cs2)c1=O [Compound 480]
> 20000 | > 20000 | O=C1CCCc2c1cc(-c1nc(-c3ccc(Cl)cc3)cs1)c(=O)n2-c1cccnc1 [Compound 481]
< 300 | < 300 | CCc1cccc(CC)c1-n1c(C=C(C)C)c(C(=O)N2CCN[C@H](C)C2)cc(-c2nc(-c3ccc(C(F)(F)F)cc3)cs2)c1=O [Compound 483]
> 20000 | > 20000 | CCc1cccc(CC)c1-n1c(CC(C)C)c(C(=O)N2CCNCC2)cc(-c2ccn(Cc3ccc(Cl)cc3)n2)c1=O [Compound 487]
< 300 | < 300 | CCOc1ncc(F)cc1-n1c(C=C(C)C)c(C(=O)N2CCNCC2)cc(-c2nc(-c3ccc(Cl)cc3)cs2)c1=O [Compound 488]
